From patent US20260258077A1, “PROTEIN FOLDING AGENT, COMPOUND, PROTEIN FOLDING METHOD, PHARMACEUTICAL COMPOSITION, AND AGENT FOR SUPPRESSING CYTOTOXICITY BY TRANSITION METAL” (National University Corporation Tokyo University of …, priority 2023, published 2026)

Columns and labels:
[1] = biological target: T1, reduced and denatured Bovine Pancreatic Trypsin Inhibitor (BPTI) (Bos taurus, UniProt P00974); experiment: Protein folding test of reduced and denatured BPTI (reverse-phase HPLC); assay type: biochemical; conditions: for formation proportion of native structural BPTI in the presence of Zn(II) ions: 90 μM Zn(II) (ZnSO4), 90 μM (B-1-2-1) or 900 μM GSSG alone, 1 hour (FIG. 25)
T1 construct: purchased Pro-Spec-Tany TechnoGene Ltd. (Rehovot, Israel)
Experimental: Bovine Pancreatic Trypsin Inhibitor (BPTI) having three disulfide bonds in the molecule was used as a model protein for analyzing a folding process.
BPTI (10 mg) was dissolved in 0.1 M Tris-HCl (pH: 8.0, 1.0 mL) containing 30 mM 1,4-dithiothreitol and 8 M urea, incubated at 50° C. for 3 hours, and purified by reverse-phase HPLC. HPLC purification was carried out using a PU-4180 pump and a UV-4075 detector manufactured by JASCO Corporation (Tokyo, Japan), and an InertSustain C18 column (4.6 mm×250 mm) manufactured by GL Sciences Inc. (Tokyo, Japan) at a flow rate of 1.0 mL·min^−1. The collected fractions were freeze-dried, and the obtained powder was stored at −30° C.
For analysis of the folding process by reverse-phase HPLC, Primaide HPLC system manufactured by Hitachi High-Tech Corporation (Tokyo, Japan) and TSKgel Protein C4-300 column (§ 4.6×150 mm) manufactured by Tosoh Corporation (Tokyo, Japan) were used. […]
In the presence of 200 μM of the compound (B-1-1-1) and 1.0 mM of the compound (A-1-1-1), reduced and denatured BPTI (30 μM) was dissolved in a Tris-HCl buffer (50 mM Tris-HCl, 300 mM NaCl, pH: 7.5) and incubated at 30° C. Reaction solutions (200 μL) collected at 0 minutes, 1 minute, 5 minutes, 10 minutes, 30 minutes, and 60 minutes after the start of the reaction were mixed with an equivalent amount of 1 M hydrochloric acid, and analyzed by reverse-phase HPLC. Tracing was performed at a flow rate of 1.0 mL·min^−1 and a wavelength of 229 nm, and a linear gradient was applied to the elution solvent ratio during measurement (solvent A: water containing 0.05% TFA, solvent B: acetonitrile containing 0.05% TFA; the amount of solvent A: 95% at 0 minutes, 80% at 15 minutes, 65% at 45 minutes). […]
In the presence of 200 μM oxidized glutathione (GSSG) and 1.0 mM reduced glutathione (GSH), or in the presence of 200 μM of the compound (B-1-1-1) and 1.0 mM of the compound (A-1-1-1), ZnSO4 and reduced and denatured BPTI (30 μM) were dissolved in a Tris-HCl buffer (50 mM Tris-HCl, 300 mM NaCl, pH: 7.5) and incubated at 30° C. The reaction solution (200 μL) 1 hour after the start of the reaction was mixed with an equivalent amount of 1 M hydrochloric acid and analyzed by reverse-phase HPLC. Tracing was performed at a flow rate of 1.0 mL·min^−1 and a wavelength of 229 nm, and a linear gradient was applied to the elution solvent ratio during measurement (solvent A: water containing 0.05% TFA, solvent B: acetonitrile containing 0.05% TFA; the amount of solvent A: 95% at 0 minutes, 80% at 15 minutes, 65% at 45 minutes).
In the presence of 90 μM of the compound (B-1-2-1) and 900 μM of the compound (A-1-2-1), or in the presence of 90 μM of oxidized glutathione […] and 900 μM of reduced glutathione […], reduced and denatured BPTI (30 μM) was dissolved in a Tris-HCl buffer (50 mM Tris-HCl, 300 mM NaCl, pH: 7.5) and incubated at 30° C. The reaction solution (200 μL) 1 hour after the start of the reaction was mixed with an equivalent amount of 1 M hydrochloric acid and analyzed by reverse-phase HPLC. Tracing was performed at a flow rate of 1.0 mL·min^−1 and a wavelength of 229 nm, and a linear gradient was applied to the elution solvent ratio during measurement (solvent A: water containing 0.05% TFA, solvent B: acetonitrile containing 0.05% TFA; the amount of solvent A: 95% at 0 minutes, 80% at 15 minutes, 65% at 45 minutes).
In the presence of 90 μM of the compound (B-1-2-1), 90 μM of Zn(II) ion (ZnSO4) and reduced and denatured BPTI (30 μM) were dissolved in a Tris-HCl buffer (50 mM Tris-HCl, 300 mM NaCl, pH: 7.5) and incubated at 30° C. The reaction solution (200 μL) 1 hour after the start of the reaction was mixed with an equivalent amount of 1 M hydrochloric acid and analyzed by reverse-phase HPLC. […]

[2] = system: HeLa cells; experiment: Suppressive effect on cytotoxicity of Cu(II) ions (Cell Counting Kit-8); assay type: cell-based; conditions: 100 μM Cu(II); single oxidized agent added four hours later; read 24 hours after CuCl2 (FIG. 15)
Experimental: HeLa cells were seeded in a 96-well plate at 5,000 cells/well and cultured at 37° C. in a 5% CO2 environment for 24 hours. Subsequently, a CuCl2 aqueous solution was added thereto to obtain 100 μM Cu(II). Four hours later, a mixed solution (10:1) of a certain amount of the compound (A-1-1-1) and the compound (B-1-1-1), or a mixed solution (10:1) of oxidized glutathione (GSSG) and reduced glutathione (GSH) was added. 24 hours after the addition of CuCl2, a Cell Counting Kit-8 solution was added thereto. Two hours later, an absorbance at 450 nm was measured to estimate the cell viability.
HeLa cells were seeded in a 96-well plate at 5,000 cells/well and cultured at 37° C. in a 5% CO2 environment for 24 hours. Subsequently, a CuCl2 aqueous solution was added thereto to obtain 100 μM Cu(II). Four hours later, a certain amount of the compound (B-1-1-1) solution or oxidized glutathione (GSSG) solution was added thereto. 24 hours after the addition of CuCl2, a Cell Counting Kit-8 solution was added thereto. Two hours later, the absorbance at 450 nm was measured to estimate the cell viability.

`C1CN2CCSSCCN(CCN1)CC2` [compound (B-2-1-1)] was tested, and the “protein folding promotion effect of a catalytic amount” value ([1]; 6 μM (B-2-1-1), NiCl2 0 μM, BPTI 30 μM (FIG. 31)) was “had the protein folding promotion effect”, the “protein folding promotion effect of a catalytic amount in the presence of Ni(II) ions” value ([1]; 6 μM (B-2-1-1), NiCl2 1 μM, BPTI 30 μM (FIG. 32)) was “significantly improved as compared with the absence of Ni(II) ions” and the “protein folding promotion effect of a catalytic amount in the presence of Cu(II) ions” value ([1]; 30 μM (B-2-1-1), CuCl2 5 μM, BPTI 30 μM (FIG. 33)) was “significantly improved as compared with the absence of Cu(II) ions”. The “formation proportion of native structural BPTI with increasing Cu(II) ion concentration” value ([1]; 90 μM (B-2-1-1), CuCl2, 1 hour (FIG. 29)) was “formation proportion of native structural BPTI increased as the Cu(II) ion concentration increased”, the “formation proportion of native structural BPTI with increasing Ni(II) ion concentration” value ([1]; 90 μM (B-2-1-1), NiCl2, 1 hour (FIG. 30)) was “formation proportion of native structural BPTI increased as the Ni(II) ion concentration increased” and the “folding versus theoretical yield of a stoichiometric reaction” value ([1]; catalytic amount of (B-2-1-1), presence of Ni(II) ions or Cu(II) ions) was “enhancement of folding that greatly exceeded the theoretical yield expected for a stoichiometric reaction”. The “protein folding promotion effect” value ([1]; no metal ion, 90 μM agent, 1 hour, 30° C. (FIG. 28)) was “protein folding promotion effect comparable to that of GSSG”.

With `C1CNCCN(CCSSCCN2CCNCCNCC2)CCN1` [compound (B-1-2-1)] the “formation of native structural BPTI in the absence of Zn(II) ions” value ([1]; 90 μM (B-1-2-1) alone, Zn(II) 0 μM, 1 hour (FIG. 23)) was “native structural BPTI was formed even at a Zn(II) ion concentration of 0 μM”, the “formation proportion of native structural BPTI with increasing Zn(II) ion concentration” value ([1]; 90 μM (B-1-2-1) alone, ZnSO4, 1 hour, 30° C. (FIG. 23)) was “formation proportion of native structural BPTI increased as the Zn(II) ion concentration increased” and the “formation proportion of native structural BPTI in the presence of Zn(II) ions” value [1] was “formation proportion of native structural BPTI was larger in the presence of Zn(II) ions than in the absence of Zn(II) ions”.

With “oxidized glutathione [GSSG, reference compound]” the “improvement of cell viability of HeLa cells exposed to Cu(II) ions” value [2] was “had little effect on improving the cell viability of HeLa cells” and the “formation proportion of native structural BPTI in the presence of Zn(II) ions” value [1] was “proteins aggregated and folding hardly proceeded”.

For `C1CNCCNCCCN(CCSSCCN2CCCNCCNCCCNCC2)CCNC1` [compound (B-1-1-1)], the “improvement of cell viability of HeLa cells exposed to Cu(II) ions” value [2] was “greatly improved the viability of HeLa cells”.
